Measured values as given in US12570648B2, “6,7-dihydro-5H-pyrido[2,3-c]pyridazine derivatives and related compounds as Bcl-xL protein inhibitors and pro-apoptotic agents for treating cancer” (LES LABORATOIRES SERVIER, priority 2019, dated 2026).

Columns and labels:
[1] = molecular target: His-His-(EK)-hsBCLXL(2-197)[N197C] (Homo sapiens (Human), UniProt Q07817, N197C); assay: Fluorescence quenching assay; assay type: binding; details: 1 nM Cy5-labelled protein, 400 nM PUMA peptide, 2 hours at 23° C.; KI determined from IC50
Excerpt: Fluorescence quenching assay measures the change in fluorescence intensity of C-terminally Cy5-labelled BCL-xL protein, His-His-(EK)-hsBCLXL(2-197)[N197C] (UniProtKB®
which is linked in C-terminal region to the amino acid X which corresponds to a cysteine labelled on the sulfur with Sulfo-Cyanine5 from Lumiprobe GmbH catalogue number 13380, upon binding of a C-terminally labelled peptide derived from PUMA (UniProtKB® primary accession number Q9BXH1) having an aminoacid sequence (SEQ ID:04): [[…]] which is linked in C-terminal region to the amino acid X′ where X′ is cysteine labelled on the sulfur with TQ5WS from AAT Bioquest catalogue number 2079.
The addition of a compound which binds competitively to the same site as the peptide will result in an increase in the fluorescence intensity of the protein due to displacement of the fluorescence quencher.
An 11-point serial dilution of each compound was prepared in DMSO, the final buffer conditions were 10 mM 4-(2-hydroxyethyl)-1-piperazineethanesulfonic acid [HEPES], 150 mM NaCl, 0.05% Tween 20, pH 7.4 and 5% DMSO. The final protein concentration in the assay was 1 nM with the peptide present at 400 nM. The experiments were incubated for 2 hours at 23° C. before fluorescence intensity was measured on a Biotek SynergyNeo plate reader (Excitation 620 nm, emission 680 nm). […] The K1 values were determined from the IC50 values according to Cer et al, Nucleic Acids Res, 2009, Jul. 1; 37 (WebServer issue): W441-W445.

MOLT-4 cells = assay: MOLT-4 cell viability using MTT assay; assay type: cell-based; details: 48 h exposure
Protocol: MTT colorimetric assay is based on the mitochondrial reduction of tetrazolium salt by living cells.
Cells were cultured at 37° C. in a humidified atmosphere containing 5% CO2. […] At the end of incubation time, 15 μL of MTT solution (5 mg/ml) were added per well and the cells were incubated for another 4 h. […] IC50s were calculated using standard four-parametric curve fitting.

Sequence of His-His-(EK)-hsBCLXL(2-197)[N197C] (Q07817 2-197 N197C): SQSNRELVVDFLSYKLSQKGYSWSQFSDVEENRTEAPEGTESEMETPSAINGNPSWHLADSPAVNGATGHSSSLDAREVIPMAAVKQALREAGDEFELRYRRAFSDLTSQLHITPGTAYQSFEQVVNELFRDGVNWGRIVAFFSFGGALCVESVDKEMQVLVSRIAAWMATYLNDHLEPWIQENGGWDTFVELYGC

Structure (SMILES) | Ki [1] [nM] | IC50 (MOLT-4 cells; Homo sapiens, MOLT-4, 48 h) [nM] | IC50 (MOLT-4 cells) [nM]
CNCC#Cc1ccc(OCCCc2sc(N3CCCc4c3nnc(Nc3nc5ccccc5s3)c4C)nc2C(=O)O)cc1 [Example 80, 2-[3-(1,3-Benzothiazol-2-ylamino)-4-methyl-6,7-dihydro-5H-pyrido[2,3-c]pyridazin-8-yl]-5-[3-[4-[3-(methylamino)prop-1-ynyl]phenoxy]propyl]thiazole-4-carboxylic acid] | 0.0065 | 0.575 | –
Cc1c(Nc2nc3ccccc3s2)nnc2c1CCCN2c1nc(C(=O)O)c(CCCOc2ccc(C#CC(C)(C)N3CCCC3)cc2F)s1 [Example 81, 2-[3-(1,3-Benzothiazol-2-ylamino)-4-methyl-6,7-dihydro-5H-pyrido[2,3-c]pyridazin-8-yl]-5-[3-[2-fluoro-4-(3-methyl-3-pyrrolidin-1-yl-but-1-ynyl)phenoxy]propyl]thiazole-4-carboxylic acid] | 0.015 | 0.175 | –
Cc1c(Nc2nc3cccc(F)c3s2)nnc2c1CCCN2c1nc(C(=O)O)c(CCCOc2ccc(C#CCN(C)C)cc2F)s1 [Example 82, 5-[3-[4-[3-(Dimethylamino)prop-1-ynyl]-2-fluoro-phenoxy]propyl]-2-[3-[(7-fluoro-1,3-benzothiazol-2-yl)amino]-4-methyl-6,7-dihydro-5H-pyrido[2,3-c]pyridazin-8-yl]thiazole-4-carboxylic acid] | 0.023 | 1.21 | –
Cc1c(Nc2nc3ccccc3s2)nnc2c1CCCN2c1nc(C(=O)O)c(CCCOc2ccc(C#CC(C)(C)N(C)C)cc2F)s1 [Example 83, 2-[3-(1,3-Benzothiazol-2-ylamino)-4-methyl-6,7-dihydro-5H-pyrido[2,3-c]pyridazin-8-yl]-5-[3-[4-[3-(dimethylamino)-3-methyl-but-1-ynyl]-2-fluoro-phenoxy]propyl]thiazole-4-carboxylic acid] | 0.026 | 0.573 | –
Cc1c(Nc2nc3ccccc3s2)nnc2c1CCCN2c1nc(C(=O)O)c(CCCOc2ccc(C#CC3(N(C)C)CCCCC3)cc2F)s1 [Example 84, 2-[3-(1,3-Benzothiazol-2-ylamino)-4-methyl-6,7-dihydro-5H-pyrido[2,3-c]pyridazin-8-yl]-5-[3-[4-[2-[1-(dimethylamino)cyclohexyl]ethynyl]-2-fluoro-phenoxy]propyl]thiazole-4-carboxylic acid] | 0.053 | 1.83 | –
CCN(CC)CC#Cc1ccc(OCCCc2sc(N3CCCc4c3nnc(Nc3nc5ccccc5s3)c4C)nc2C(=O)O)c(F)c1 [Example 85, 2-[3-(1,3-Benzothiazol-2-ylamino)-4-methyl-6,7-dihydro-5H-pyrido[2,3-c]pyridazin-8-yl]-5-[3-[4-[3-(diethylamino)prop-1-ynyl]-2-fluoro-phenoxy]propyl]thiazole-4-carboxylic acid] | 0.044 | 0.416 | –
Cc1c(Nc2nc3ccccc3s2)nnc2c1CCCN2c1nc(C(=O)O)c(CCCOc2ccc(C#CCN(C(C)C)C(C)C)cc2F)s1 [Example 86, 2-[3-(1,3-Benzothiazol-2-ylamino)-4-methyl-6,7-dihydro-5H-pyrido[2,3-c]pyridazin-8-yl]-5-[3-[4-[3-(diisopropylamino)prop-1-ynyl]-2-fluoro-phenoxy]propyl]thiazole-4-carboxylic acid] | 0.019 | 1.5 | –
CCN(C)CC#Cc1ccc(OCCCc2sc(N3CCCc4c3nnc(Nc3nc5ccccc5s3)c4C)nc2C(=O)O)c(F)c1 [Example 88, 2-[3-(1,3-Benzothiazol-2-ylamino)-4-methyl-6,7-dihydro-5H-pyrido[2,3-c]pyridazin-8-yl]-5-[3-[4-[3-[ethyl(methyl)amino]prop-1-ynyl]-2-fluoro-phenoxy]propyl]thiazole-4-carboxylic acid] | 0.01 | 0.181 | –
Cc1c(Nc2nc3ccccc3s2)nnc2c1CCCN2c1nc(C(=O)O)c(CCCOc2ccc(C#CCN3C[C@@H](C)N[C@@H](C)C3)cc2F)s1 [Example 89, 2-[3-(1,3-Benzothiazol-2-ylamino)-4-methyl-6,7-dihydro-5H-pyrido[2,3-c]pyridazin-8-yl]-5-[3-[4-[3-[(3R,5S)-3,5-dimethylpiperazin-1-yl]prop-1-ynyl]-2-fluoro-phenoxy]propyl]thiazole-4-carboxylic acid] | 0.0028 | 0.57 | –
Cc1c(Nc2nc3ccccc3s2)nnc2c1CCCN2c1nc(C(=O)O)c(CCCOc2ccc(C34CC(CN(C)C)(C3)C4)cc2F)s1 [Example 90, 2-[3-(1,3-Benzothiazol-2-ylamino)-4-methyl-6,7-dihydro-5H-pyrido[2,3-c]pyridazin-8-yl]-5-[3-[4-[1-[(dimethylamino)methyl]-3-bicyclo[1.1.1]pentanyl]-2-fluoro-phenoxy]propyl]thiazole-4-carboxylic acid] | 0.0022 | 0.46 | –
CNC(C)(C)C#Cc1ccc(OCCCc2sc(N3CCCc4c3nnc(Nc3nc5ccccc5s3)c4C)nc2C(=O)O)c(F)c1 [Example 91, 2-[3-(1,3-Benzothiazol-2-ylamino)-4-methyl-6,7-dihydro-5H-pyrido[2,3-c]pyridazin-8-yl]-5-[3-[2-fluoro-4-[3-methyl-3-(methylamino)but-1-ynyl]phenoxy]propyl]thiazole-4-carboxylic acid] | 0.0057 | 0.359 | –
Cc1c(Nc2nc3ccccc3s2)nnc2c1CCCN2c1ccc(-c2cnn(CC34CC5(C)CC(C)(C3)CC(OCCNCC[C@@H](O)CO)(C5)C4)c2C)c(C(=O)O)n1 [Example 93, 6-{3-[(1,3-benzothiazol-2-yl)amino]-4-methyl-6,7-dihydropyrido[2,3-c]pyridazin-8(5H)-yl}-3-(1-{[3-(2-{[(3R)-3,4-dihydroxybutyl]amino}ethoxy)-5,7-dimethyladamantan-1-yl]methyl}-5-methyl-1H-pyrazol-4-yl)pyridine-2-carboxylic acid] | 0.0024 | – | 14.2
CNCCOC12CC3(C)CC(C)(CC(Cn4ncc(-c5ccc(N6CCCc7c6nnc(Nc6nc8ccccc8s6)c7C)nc5C(=O)O)c4C)(C3)C1)C2 [Example 94, 6-{3-[(1,3-benzothiazol-2-yl)amino]-4-methyl-6,7-dihydropyrido[2,3-c]pyridazin-8(5H)-yl}-3-[1-({3,5-dimethyl-7-[2-(methylamino)ethoxy]adamantan-1-yl}methyl)-5-methyl-1H-pyrazol-4-yl]pyridine-2-carboxylic acid] | 0.0015 | 0.616 | –
Cc1c(Nc2nc3ccccc3s2)nnc2c1CCCN2c1ccc(-c2cnn(CC34CC5(C)CC(C)(C3)CC(OCCN(C)C)(C5)C4)c2C)c(C(=O)O)n1 [Example 95, 6-{3-[(1,3-benzothiazol-2-yl)amino]-4-methyl-6,7-dihydropyrido[2,3-c]pyridazin-8(5H)-yl}-3-[1-({3-[2-(dimethylamino)ethoxy]-5,7-dimethyladamantan-1-yl}methyl)-5-methyl-1H-pyrazol-4-yl]pyridine-2-carboxylic acid] | 0.0056 | 0.205 | –
Cc1c(Nc2nc3ccccc3s2)nnc2c1CCCN2c1ccc(-c2cnn(CC34CC5(C)CC(C)(C3)CC(OCCNCCS(=O)(=O)O)(C5)C4)c2C)c(C(=O)O)n1 [Example 96, 6-{3-[(1,3-benzothiazol-2-yl)amino]-4-methyl-6,7-dihydropyrido[2,3-c]pyridazin-8(5H)-yl}-3-{1-[(3,5-dimethyl-7-{2-[(2-sulfoethyl)amino]ethoxy}adamantan-1-yl)methyl]-5-methyl-1H-pyrazol-4-yl}pyridine-2-carboxylic acid] | 0.0022 | 8.27 | –
